Source: US20140308207A1, “OPEN MICROFLUIDIC DEVICES FOR CHEMOTAXIS, METHODS OF USING SAME, AND APPLICATIONS OF SAME” (priority 2013, published 2014)

Key:
[1] = system: Dictyostelium discoideum cells
Text: Cells were readily loaded by micropipetting into the cell loading area where they were allowed to settle and adhere to the silica cover slip. The channels were primed with buffer by a syringe; we observed that the cells randomly migrated on the surface. Once the cells adhered, cAMP was pumped in to form a chemoattractant gradient. To perform this function, a Harvard apparatus pump was used to create positive pressure on the chemoattractant loaded syringe.
As shown in FIG. 6(a), tracks of seven individual cells (A-G) migrating toward the cAMP source openings (open circles). The starting point for each cell is marked with and X. Scale bar is 20 μm. B.) Quantitation of the migration parameters for cells A-G. In the table as shown in FIG. 6(b), V, C.I., and P represent velocity (microns/min.), chemotactic index, and persistence, respectively. The multiple data points in the table for cells A-G represent different sections of the path as the cell traveled toward the cAMP source.
The cell buffer was used for water immersion.
The device was connected to an inlet and outlet syringe on a Harvard Apparatus syringe pump using microfluidic tubing. […]
In order to visualize the migration of cells and record the specifics of chemotactic response; a program was written with LabVIEW™ software. […] The measured centroids are overlayed on the image data so that the tracking of the cell can be visually verified. […]

[2] = system: Dictyostelium discoideum cells; settings: AX2 cells expressing RBD-GFP, 10 μM cAMP, bulk silica device, cells A-E tracked
Text: (Jowhar, et al., 2010.) D. discoideum cells expressing the Ras Binding Domain of Rafl and fused to the green fluorescent protein (RBD-GFP) were loaded into the open cell ports and exposed to gradients of the chemoattractant cAMP, as shown in FIG. 1E. […] Each 3 mm cell loading port was exposed to three different sources of cAMP (from three 3.0 μm gradient generating ports) under the control of a syringe or Harvard apparatus pump, which serves as a chemoattractant supply device. The syringe pump was used to apply a constant positive pressure to the loaded syringe, thus, preventing fluctuations in the gradient from potential backflow created by negative pressure.
A number of solitary cells that could be followed continuously were tracked using the Cell Tracker program written in LabVIEW™ software (FIG. 3a).
The starting point for each cell is marked with and X. Scale bar is 10 μm. In the table as shown in FIG. 3(b), V, C.I., and P represent velocity (microns/min.), chemotactic index, and persistence, respectively. The same cells were measured at different points along the traveled path to the source and are scored more than once. […]
In order to visualize the migration of cells and record the specifics of chemotactic response; a program was written with LabVIEW™ software. […] The measured centroids are overlayed on the image data so that the tracking of the cell can be visually verified.

myeloid cells = assay: Intravital imaging of a mouse with microfluidic coverslip; assay type: in vivo; settings: 50 ng/ml added through coverslip device

| Compound | chemotaxis indices and persistence ([1]; AX2 cells expressing RBD-GFP, 100 nM cAMP, silica coverslip device with five ports, cells A-G tracked) | cell migration toward gradient ports ([1]; cells expressing LimE-RFP, cover slip device with three 15 μm ports, upright microscope, 80-minute series) | chemotaxis indices and persistence toward the source [2] | migration rates of myeloid cells (myeloid cells) |
| --- | --- | --- | --- | --- |
| Nc1ncnc2c1ncn2[C@@H]1O[C@@H]2COP(=O)(O)O[C@H]2[C@H]1O [cAMP, cyclic adenosine monophosphate] | good chemotaxis indices and persistence | rapidly migrated towards and into the cAMP gradient cover slip ports | strong chemotaxis indices and persistence |  |
| epidermal growth factor: growth factor added through the microfluidic coverslip to alter myeloid cell migration |  |  |  | migration rates altered |
